Measurements: patent US12673055B2, “Treatment of atopic dermatitis with tradipitant” (Vanda Pharmaceuticals Inc., priority 2020, dated 2026)

Tested on: atopic dermatitis (AD) patients with severe pruritus
Assay: EPIONE randomized, placebo-controlled phase III study
Format: in vivo, human
Parameters: key to WI-NRS Adjusting for IGA Severity / WI-NRS (change) / Diary WI-NRS: change from baseline in WI-NRS itch score
Description: A randomized, placebo-controlled phase III study is conducted in atopic dermatitis (AD) patients with severe pruritus with a range of disease severity presentation from mild (23%) to moderate (64%) and severe (13%) as determined by the Investigator's Global Assessment scale (IGA). In the study, patients (n=341) are randomized 1:1 to receive either tradipitant or placebo for a treatment period of eight (8) weeks. Patients in the tradipitant arm of the study are dosed with 85 mg tradipitant twice daily (bid). Patients are assessed at baseline and post-randomization with a number of symptomatic and disease severity scales at regular intervals.
A significant interaction is observed between baseline disease severity and treatment (p=0.0004), where disease severity is measured by Investigator's Global Assessment (IGA) on a scale of 1-4.
Similar effects are seen throughout the treatment periods at all post-randomization visits comprising weeks 2, 4, 6 and 8 (Table 1).

[1] = mild AD (n = 79), 85 mg bid, Week 8

O=C(c1ccccc1Cl)c1cccnc1-c1nnn(Cc2cc(C(F)(F)F)cc(C(F)(F)F)c2)c1-c1ccncc1 [Tradipitant]
WI-NRS (change) (IGA 1, 2 (mild AD, n = 79), Tradipitant n = 40, 85 mg bid, Week 2): −2.59
WI-NRS (change) (IGA 1, 2 (mild AD, n = 79), Tradipitant n = 40, 85 mg bid, Week 4): −3.39
WI-NRS (change) (IGA 1, 2 (mild AD, n = 79), Tradipitant n = 40, 85 mg bid, Week 6): −4.18
WI-NRS (change) (IGA 1, 2 (mild AD, n = 79), Tradipitant n = 40, 85 mg bid, Week 8): −4.74
Diary WI-NRS (IGA 1, 2 (n = 79), 85 mg bid, Week 2): −1.54
Diary WI-NRS (IGA 1, 2 (n = 79), 85 mg bid, Week 4): −2.78
Diary WI-NRS (IGA 1, 2 (n = 79), 85 mg bid, Week 6): −3.48
Diary WI-NRS (IGA 1, 2 (n = 79), 85 mg bid, Week 8): −4.23
Diary WI-NRS Diff (tradipitant vs placebo) (IGA 1, 2 (n = 79), Week 2): 1.18
WI-NRS Diff (tradipitant vs placebo) (IGA 1, 2 (n = 79), Week 2): 1.61
Diary WI-NRS Diff (tradipitant vs placebo) (IGA 1, 2 (n = 79), Week 4): 1.71
WI-NRS Diff (tradipitant vs placebo) (IGA 1, 2 (n = 79), Week 4): 1.92
Diary WI-NRS Diff (tradipitant vs placebo) (IGA 1, 2 (n = 79), Week 6): 1.76
WI-NRS Diff (tradipitant vs placebo) (IGA 1, 2 (n = 79), Week 6): 1.86
Diary WI-NRS Diff (tradipitant vs placebo) (IGA 1, 2 (n = 79), Week 8): 2.09
WI-NRS Diff (tradipitant vs placebo) (IGA 1, 2 (n = 79), Week 8): 1.60
WI-NRS Adjusting for IGA Severity (ITT (n = 341), 85 mg bid, Week 2): −2.43
WI-NRS Adjusting for IGA Severity (ITT (n = 341), 85 mg bid, Week 4): −3.34
WI-NRS Adjusting for IGA Severity (ITT (n = 341), 85 mg bid, Week 6): −3.75
WI-NRS Adjusting for IGA Severity (ITT (n = 341), 85 mg bid, Week 8): −4.36
WI-NRS (change) (ITT (n = 341), Tradipitant n = 171, 85 mg bid, Week 2): −1.68
WI-NRS (change) (ITT (n = 341), Tradipitant n = 171, 85 mg bid, Week 4): −2.58
WI-NRS (change) (ITT (n = 341), Tradipitant n = 171, 85 mg bid, Week 6): −3.00
WI-NRS (change) (ITT (n = 341), Tradipitant n = 171, 85 mg bid, Week 8): −3.61
WI-NRS Adjusting for IGA Severity, Diff (tradipitant vs placebo) (ITT (n = 341), Week 2): 1.14
WI-NRS Diff (tradipitant vs placebo) (ITT (n = 341), Week 2): 0.23
WI-NRS Adjusting for IGA Severity, Diff (tradipitant vs placebo) (ITT (n = 341), Week 4): 1.29
WI-NRS Diff (tradipitant vs placebo) (ITT (n = 341), Week 4): 0.39
WI-NRS Adjusting for IGA Severity, Diff (tradipitant vs placebo) (ITT (n = 341), Week 6): 1.01
WI-NRS Diff (tradipitant vs placebo) (ITT (n = 341), Week 6): 0.11
WI-NRS Adjusting for IGA Severity, Diff (tradipitant vs placebo) (ITT (n = 341), Week 8): 1.08
WI-NRS Diff (tradipitant vs placebo) (ITT (n = 341), Week 8): 0.18
magnitude of improvement in pruritus (WI-NRS) compared with placebo (full population, week 8, difference not statistically significant): greater than that of placebo
improvement in WI-NRS compared to placebo, accounting for baseline disease severity and treatment interaction (full trial population, week 8, p=0.0217): significantly larger improvement
safety profile (in vivo): relatively safe profile
WI-NRS over placebo in the mild AD group (mild AD (IGA 1, 2), every visit): significantly improves WI-NRS over placebo at every visit
Responder Analysis: IGA 0 or 1 [1]: 60.0%
Responder Analysis: SCORAD 50% Improvement [1]: 55.0%
Responder Analysis: IGA 0 or 1, Diff (tradipitant vs placebo) (mild AD (n = 79), Week 8): 21.5%
Responder Analysis: SCORAD 50% Improvement, Diff (tradipitant vs placebo) (mild AD (n = 79), Week 8): 24.2%
Responder Analysis: WI-NRS ≥4 Improvement, Diff (tradipitant vs placebo) (mild AD (n = 79), Week 8): 39.2%
time course of response: onset of antipruritic effect (mild AD patients, daily diary): immediately after the first full day of tradipitant dosing
Responder Analysis: WI-NRS ≥4 Improvement (mild AD, IGA 1, 2 (n = 79), 85 mg bid, Week 8): 72.5%
